Article PMC9501899 (Journal of the American Chemical Society, 2022)
In brackets after ≈: the same amount, converted by molar mass. Like-named read-outs stand apart in the source and are kept apart here.

Legend:
[1] = Solubility in phosphate buffer and FeSSIF; format: physicochemical
Method: Eight microliters of reference or test compound stock solution (10 mM in DMSO) was added to 792 μL of 100 mM phosphate buffer (pH 7.4) or FeSSIF (pH 5.8). The resulting mixture was shaken for 1 h (1000 rpm) at room temperature and then centrifuged for 10 min (12 000 rpm) to remove the undissolved particles. The supernatant was collected and diluted 10 times and 100 times separately with 100 mM phosphate buffer or FeSSIF. Five microliters of the supernatant samples (no diluted, 10 times diluted, 100 times diluted) were mixed with 95 μL of acetonitrile (containing internal standard) separately before injecting into LC-MS/MS for analysis.

Caco-2 cell permeability = format: in vitro ADME; conditions: human
Method: Caco-2 cells with transepithelial electrical resistance (TEER) (TEER = (resistance sample – resistance blank) × effective membrane area) = 450 ± 19 Ω cm^2were used for the experiment. Compounds were dissolved in the appropriate buffer (10 mM DMSO stock solutions were diluted with HBSS buffer to a final concentration of 10 μM testing compound and 0.4% DMSO, Lucifer Yellow was introduced in the apical side buffer to test the intactness of the monocell layer) and was applied to the apical or basolateral donor side for measuring A–B or B–A permeability (two replicates), respectively. The apical and basolateral plates were prewarmed to 37 °C before placing the apical plate onto the basolateral plate. After incubating at 37 °C for 90 min, the apical plate and basolateral plate were separated, and the donor or receiver samples were analyzed with UPLC-MS/MS.

Plasma stability assay = format: in vitro ADME; conditions: mouse plasma, 37 °C; read-out: T1/2 in mouse plasma
Method: Frozen plasma was thawed at 37 °C and centrifuged at 3000 rpm for 8 min to remove clots, and the supernatant was used in the experiment. The pH of the plasma was recorded, and only the pH range between 7.4 and 8 was used. The plasma and compound solution were prewarmed to 37 °C. Ten microliters of prewarmed testing compound or reference compound (procaine) solution (20 μM in 0.05 mM sodium phosphate buffer (pH 7.4) with 0.5% BSA) was mixed with 90 μL of plasma at different time points to allow for 5, 15, 30, 45, and 60 min of incubation time. For 0 min, the plasma was mixed with vehicle only. Acetonitrile was added to the compound and plasma mixture to quench the reaction, and the resulting mixture was centrifuged (5594g for 15 min). The supernatant was taken and diluted before LC-MS analysis.

[2] = Pharmacokinetic (PK) study in mice; format: in vivo, C57BL/6 male mice; conditions: for bioavailability: C57BL/6, plasma, mouse
Method: Data are mean (±standard deviation (SD)) from three mice at each time point. […]
PK profiling was outsourced and undertaken by Shanghai ChemPartner Co., Ltd. All animal experiments performed were conducted in compliance with the Institutional Animal Care and Use Committee (IACUC) and the Office of Laboratory Animal Welfare (OLAW) guidelines. Six to eight week old C57BL/6 male mice purchased from Jihui Laboratory Animal Co., Ltd. were used in the study. […] The animals were restrained manually at the designated time points (0.083, 0.25, 0.5, 1, 2, 4, and 8 h); approximately, 110 μL of blood sample was collected via facial vein into K2EDTA tubes. Three mice per time point were used, resulting in a total of 21 mice for each administration route. The blood sample was put on ice and centrifuged at 2000g for 5 min to obtain the plasma sample within 15 min. The plasma, brain, and CSF samples were stored at approximately −70 °C until analysis. A 30 μL aliquot of plasma was added with 200 μL of internal standard (Glipozode, 40 ng/mL) in MeCN with 5% Citri. The mixture was then vortexed for 1 min and then centrifuged for 10 min at 5800 rpm. The supernatant (100 μL) was transferred to a new plate. The solution (1 μL) was injected into LC-MS/MS. LC-MS/MS instrument used: SCIEX LC-MS/MS-49 (Triple Quad 6500+). Data were analyzed by WinNonLin and Microsoft Excel.

[3] = male, C57BL/6, IP 30 mg/kg, mouse plasma
[4] = male, C57BL/6, IV 5 mg/kg, mouse plasma
[5] = male, C57BL/6, PO 30 mg/kg, mouse plasma

`CNc1nc(Nc2ccc(C(=O)N3CCN(C[C@H]4CC[C@H](CSC(C)(C)[C@H](NC(=O)C5(F)CC5)C(=O)N5C[C@H](O)CC5C(=O)NCc5ccc(-c6scnc6C)cc5)CC4)CC3)cc2OC)ncc1Cl` (stereo partly drawn) [XL01126, (2S,4R)-1-((R)-3-((((1R,4R)-4-((4-(4-((5-Chloro-4-(methylamino)pyrimidin-2-yl)amino)-3-methoxybenzoyl)piperazin-1-yl)methyl)cyclohexyl)methyl)thio)-2-(1-fluorocyclopropane-1-carboxamido)-3-methylbutanoyl)-4-hydroxy-N-(4-(4-methylthiazol-5-yl)benzyl)pyrrolidine-2-carboxamide] gave a solubility at 1 h ([1]; 100 mM phosphate buffer, pH 7.4, read-out: solubilities in PBS (pH 7.4)) of 0.55 µM (≈ 0.561 µg/mL), a solubility at 1 h ([1]; FeSSIF, pH 5.8, read-out: solubility in FeSSIF (pH 5.8)) of 26.1 µM (≈ 26.6 µg/mL) and a Papp A→B at 90 min, 10 µM (Caco-2 cell permeability; A–B) of under 0.74 ×10⁻⁶ cm/s. It also gave a Papp B→A at 90 min, 10 µM (Caco-2 cell permeability; B–A) of under 1.43 ×10⁻⁶ cm/s, a half-life at 2 µM (Plasma stability assay) of 108 min and a Kp ([2]; male, C57BL/6, mouse, brain, other: IV, mice, single dose IV, IP or PO, read-out: brain-to-plasma ratio) of under 0.035. It also gave a bioavailability ([2]; male, IP 30 mg/kg, read-out: F) of 29.2%, a bioavailability ([2]; male, PO 30 mg/kg, read-out: F, oral bioavailability) of 15% and an AUC(0-inf) [2, 3] of 64100 ng·h/mL. The AUC(0-t) [2, 3] was 41400 ng·h/mL, the Cmax [2, 3] was 7700 ng/mL and the Tmax [2, 3] was 0.25 h. For the same molecule, the half-life [2, 3] was 312 min, the AUC(0-inf) [2, 4] was 24000 ng·h/mL and the AUC(0-t) [2, 4] was 23700 ng·h/mL. For the same molecule, the MRT [2, 4] was 2.45 h, the clearance [2, 4] was 3.47 mL/min/kg and the half-life [2, 4] was 91.2 min. The Vd ([2]; male, C57BL/6, IV 5 mg/kg, mouse plasma, read-out: Vss) was 0.511 L/kg, the AUC(0-inf) [2, 5] was 109000 ng·h/mL and the AUC(0-t) [2, 5] was 21300 ng·h/mL. It also gave a Cmax [2, 5] of 3620 ng/mL, a Tmax [2, 5] of 2 h and a half-life [2, 5] of 1310 min. For the same molecule, the “presence in brain tissues and CSF (in words)” value ([2]; mice, single dose IV, IP or PO) was “detected in brain tissues and CSF”.
